Assay results: ChEMBL document CHEMBL4392887, “17- nor-Cephalotane-Type Diterpenoids from Cephalotaxus fortunei” (J Nat Prod, 2019)
Structures can show the parent of a compound that is named as a salt. Active and inactive are the calls of the source. The rule behind the calls is not given here.

Columns and labels:
A549 [1] = experiment: Cytotoxicity in human A549 cells assessed as inhibition of cell viability incubated for 72 hrs by CCK-8 assay; format: functional, cell-based; details: for IC50: A549, 72 h
HL-60 [2] = experiment: Cytotoxicity in human HL60 cells assessed as inhibition of cell viability incubated for 72 hrs by CCK-8 assay; format: functional, cell-based; details: for IC50: HL-60, 72 h
HL-60 [3] = experiment: Cytotoxicity in human HL60 cells assessed as inhibition of cell viability at 50 uM incubated for 72 hrs by CCK-8 assay; format: functional; details: HL-60, 72 h
A549 [4] = experiment: Cytotoxicity in human A549 cells assessed as inhibition of cell viability at 50 uM incubated for 72 hrs by CCK-8 assay; format: functional; details: A549, 72 h

SMILES	IC50 (A549 [1]) [µM]	IC50 (HL-60 [2]) [µM]	inhibition at 50 µM (HL-60 [3]) [%]	inhibition at 50 µM (A549 [4]) [%]	other results
Cc1cc(=O)cc2c3c1C[C@@H]1[C@@H]4OC(=O)[C@](C[C@H]2O)(C(C)C4O)[C@H]31 (stereo not given in full)	25.4	38.4	–	–	–
Cc1cc(=O)cc2c3c1C[C@]1(O)[C@H]4CC(C)[C@@](CC2)(C(=O)O4)[C@]31O (stereo not given in full)	4.5	6.8	–	–	–
Cc1cc(=O)cc2c3c1C[C@@H]1[C@H]4CC(C)[C@@](C=C2)(C(=O)O4)[C@]31O (stereo not given in full)	5.7	10 to 20	–	–	–
Cc1cc(=O)cc2c3c1[C@H](O)[C@H]1[C@@H]3[C@]3(CC2)C(=O)O[C@@H]1CC3C (stereo not given in full)	2.4	3.5	–	–	–
Cc1cc(=O)cc2c3c1[C@H](O)[C@@H]1[C@@H]4OC(=O)[C@](CC2)(C(C)C4O)[C@H]31 (stereo not given in full)	2.4	2.2	–	–	–
Cc1cc(=O)cc2c3c1[C@@H](O)[C@H]1[C@@H]3[C@]3(CC2)C(=O)O[C@@H]1CC3C (stereo not given in full)	10.3	> 50	–	–	–
CC1C[C@H]2OC(=O)[C@]13CC[C@@H]1CC(=O)C[C@H](C)C4=C1[C@]3(O)[C@@H]2C4=O (stereo not given in full)	–	–	< 50	< 50	–
CC1C[C@H]2OC(=O)[C@]13CC[C@@H]1CC(=O)C[C@H](C)C4=C1[C@@H]3[C@@H]2C4=O (stereo not given in full)	–	–	< 50	< 50	–
CC1=C[C@@H](O)[C@H](O)[C@@]2(O)CC[C@]34C(=O)O[C@@H]5C(O[C@H]6C1=C2[C@@H]3[C@@H]56)C4C (stereo not given in full)	–	–	< 50	< 50	–
Cc1cc(=O)cc2c3c1[C@@H]1OC4C(C)[C@@]5(C[C@H]2O)C(=O)O[C@H]4[C@]1(O)[C@@H]35 (stereo not given in full)	11.5	17.2	–	–	–
CC1C(O)[C@H]2OC(=O)[C@]13CC[C@]14C[C@@H](O)[C@H](O1)[C@@](C)(O)C1=C4[C@@H]3[C@@H]2C1 (stereo not given in full)	–	–	< 50	< 50	–
CO[C@@]12c3c4cc(=O)cc(C)c3C[C@@H]1[C@H]1CC(C)[C@@]2(CC4)C(=O)O1 (stereo not given in full)	–	–	–	–	inhibition (A549 [1]): inactive; inhibition (HL-60 [2]): inactive
CC1C[C@H]2OC(=O)[C@]13CC[C@@H]1C[C@@H](O)C[C@H](C)C4=C1[C@@H]3[C@@H]2C4=O (stereo not given in full)	–	–	< 50	< 50	–
CC1C[C@H]2OC(=O)[C@]13CC[C@@H]1C[C@H](O)C[C@H](C)C4=C1[C@@H]3[C@@H]2C4=O (stereo not given in full)	–	–	< 50	< 50	–
Cc1cc(=O)cc2c3c1C[C@H]1[C@@H]3[C@]3(C=C2)C(=O)O[C@@H]1CC3C (stereo not given in full)	1	9.8	–	–	–
COc1cccc2c1C(=O)c1c(O)c3c(c(O)c1C2=O)C[C@@](O)(C(=O)CO)C[C@@H]3O[C@H]1C[C@H](N)[C@H](O)[C@H](C)O1 [DOXORUBICIN HYDROCHLORIDE]	0.44	0.075	–	–	–
Cc1cc(=O)cc2c3c1[C@@H](O)[C@@H]1[C@H]4CC(C)[C@@](C=C2)(C(=O)O4)[C@]31O (stereo not given in full)	–	–	–	–	inhibition (A549 [1]): inactive; inhibition (HL-60 [2]): inactive
CC1C(O)[C@H]2OC(=O)[C@]13CC[C@@H]1C[C@@H](O)C[C@H](C)C4=C1[C@]3(O)[C@@H]2C4=O (stereo not given in full)	–	–	< 50	< 50	–
Cc1cc(=O)cc2c3c1C[C@H]1[C@@H]3[C@]3(C[C@H]2O)C(=O)O[C@@H]1CC3C (stereo not given in full)	22	> 50	–	–	–
Cc1cc(=O)cc2c3c1C[C@@H]1[C@H]4CC(C)[C@@](CC2)(C(=O)O4)[C@]31O (stereo not given in full)	–	–	–	–	inhibition (A549 [1]): Active; inhibition (HL-60 [2]): inactive
